Results as given in the supplement of paper PMC11061612.

What was measured:
Assay in all cases: combination Emax (second highest fraction inhibited in the dose matrix, 72 h); higher = more inhibition; extreme values may be limits of the assay
[1] = tested on: GA-10 (Burkitt's Lymphoma)
Procedure, shortened: (§1)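 Bliss excess equals the observed combination effect minus the expected value EA + EB − EA·EB, where EA and EB are the effects of each agent alone. Combination Emax is the second-highest inhibition within the matrix. Inhibition was scaled from CellTiter-Glo 2.0 luminescence, with 0 set by vehicle wells and 1 by blank wells, after 72 hours of two-drug dosing of cells plated in 1536-well plates.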

769-P (Kidney Carcinoma) = tested on: 769-P (Kidney Carcinoma)
Procedure, shortened: as §1

[2] = tested on: CGTH-W-1 (Thyroid Gland Carcinoma)
Procedure, shortened: as §1

[3] = tested on: KYSE-220 (Esophageal Squamous Cell Carcinoma)
Procedure, shortened: as §1

[4] = tested on: GCT (Other Solid Carcinomas)
Procedure, shortened: as §1

[5] = tested on: LU-165 (Small Cell Lung Carcinoma)
Procedure, shortened: as §1

[6] = tested on: JVM-2 (B-Cell Non-Hodgkin's Lymphoma)
Procedure, shortened: as §1

[7] = tested on: LS-411N (Colorectal Carcinoma)
Procedure, shortened: as §1

[8] = tested on: UACC-812 (Breast Carcinoma)
Procedure, shortened: as §1

EB2 (Burkitt's Lymphoma) = tested on: EB2 (Burkitt's Lymphoma)
Procedure, shortened: as §1

[9] = tested on: NCI-H716 (Colorectal Carcinoma)
Procedure, shortened: as §1

[10] = tested on: DU-4475 (Breast Carcinoma)
Procedure, shortened: as §1

[11] = tested on: CAL-27 (Oral Cavity Carcinoma)
Procedure, shortened: as §1

[12] = tested on: NCI-H2087 (Lung Adenocarcinoma)
Procedure, shortened: as §1

[13] = tested on: A2780 (Ovarian Carcinoma)
Procedure, shortened: as §1

HCC70 (Breast Carcinoma) = tested on: HCC70 (Breast Carcinoma)
Procedure, shortened: as §1

[14] = tested on: KYSE-140 (Esophageal Squamous Cell Carcinoma)
Procedure, shortened: as §1

WM1552C (Melanoma) = tested on: WM1552C (Melanoma)
Procedure, shortened: as §1

[15] = tested on: HCC1395 (Breast Carcinoma)
Procedure, shortened: as §1

[16] = tested on: JHU-022 (Oral Cavity Carcinoma)
Procedure, shortened: as §1

| Compound | combination Emax [1] | combination Emax (769-P (Kidney Carcinoma)) | combination Emax [2] | combination Emax [3] | combination Emax [4] | combination Emax [5] | combination Emax [6] | combination Emax [7] | combination Emax [8] | combination Emax (EB2 (Burkitt's Lymphoma)) | combination Emax [9] | combination Emax [10] | combination Emax [11] | combination Emax [12] | combination Emax [13] | combination Emax (HCC70 (Breast Carcinoma)) | combination Emax [14] | combination Emax (WM1552C (Melanoma)) | combination Emax [15] | combination Emax [16] |
| --- | --- | --- | --- | --- | --- | --- | --- | --- | --- | --- | --- | --- | --- | --- | --- | --- | --- | --- | --- | --- |
| CC1(C)CCC(CN2CCN(c3ccc(C(=O)NS(=O)(=O)c4ccc(NCC5CCOCC5)c([N+](=O)[O-])c4)c(Oc4cnc5[nH]ccc5c4)c3)CC2)=C(c2ccc(Cl)cc2)C1 [Venetoclax] + C[C@@H]1COCCN1C2=NC(=NC(=C2)C3(CC3)[S@](=N)(=O)C)C4=C5C=CNC5=NC=C4 [AZD6738] (first compound max 1 µM, 7x7, partner max 10 µM) | 0.976 | 0.815 | 0.366 | 0.875 | 0.334 | 0.441 | 0.892 | 0.736 | 0.29 | 0.844 | 0.436 | 1 | 0.425 | 0.53 | 0.797 | 0.819 | 0.863 | 0.617 | 0.771 | 0.593 |
| CC1(C)CCC(CN2CCN(c3ccc(C(=O)NS(=O)(=O)c4ccc(NCC5CCOCC5)c([N+](=O)[O-])c4)c(Oc4cnc5[nH]ccc5c4)c3)CC2)=C(c2ccc(Cl)cc2)C1 [Venetoclax] + CCN(CCO)CCCOc1ccc2c(Nc3cc(CC(=O)Nc4cccc(F)c4)[nH]n3)ncnc2c1 [AZD2811] (first compound max 1 µM, 7x7, partner max 1 µM) | 0.598 | 0.204 | 0.272 | 0.299 | 0.273 | 0.161 | 0.681 | 0.0756 | 0.186 | 0.677 | 0.198 | 0.404 | 0.43 | 0.176 | 0.472 | 0.616 | 0.367 | 0.464 | 0.639 | 0.292 |
| COc1cccc(OCCCN)c1-c1cc(Nc2cnc(C#N)cn2)n[nH]1 [Prexasertib] + C=CCn1c(=O)c2cnc(Nc3ccc(N4CCN(C)CC4)cc3)nc2n1-c1cccc(C(C)(C)O)n1 [AZD1775] (first compound max 1 µM, partner max 1 µM) | 1 | 0.867 | 0.765 | 0.973 | 0.644 | 0.604 | 0.942 | 0.759 | 0.662 | 0.936 | 0.664 | 0.997 | 0.777 | 0.804 | 0.945 | 0.955 | 0.959 | 0.885 | 0.903 | 0.624 |
| CC(=O)Nc1cccc(-n2c(=O)n(C3CC3)c(=O)c3c(Nc4ccc(I)cc4F)n(C)c(=O)c(C)c32)c1 [Trametinib] + Cc1nc(-c2cn3c(n2)-c2ccc(-c4cnn(C(C)(C)C(N)=O)c4)cc2OCC3)n(C(C)C)n1 [Taselisib] (first compound max 1 µM, 7x7, partner max 10 µM) | 0.682 | 0.681 | 0.99 | 0.958 | 0.764 | 0.373 | 0.746 | 0.946 | 0.461 | 0.593 | 0.977 | 1 | 0.946 | 0.639 | 0.972 | 1 | 0.817 | 0.908 | 0.654 | 0.903 |
| C=CCn1c(=O)c2cnc(Nc3ccc(N4CCN(C)CC4)cc3)nc2n1-c1cccc(C(C)(C)O)n1 [AZD1775] + O=C(c1cc(Cc2n[nH]c(=O)c3ccccc23)ccc1F)N1CCN(C(=O)C2CC2)CC1 [Olaparib] (first compound max 1 µM, partner max 10 µM) | 0.981 | 0.716 | 0.193 | 0.857 | 0.501 | 0.342 | 0.888 | 0.417 | 0.14 | 0.848 | 0.378 | 0.933 | 0.525 | 0.493 | 0.76 | 0.56 | 0.733 | 0.486 | 0.719 | 0.432 |
| COc1nnc2ccc(N3CCC(c4ccc(OCCN5CCN(C)C(=O)[C@H]5C)cc4)CC3)nn12 [AZD5153] + Cn1cnc2c(F)c(Nc3ccc(Br)cc3Cl)c(C(=O)NOCCO)cc21 [Selumetinib] (first compound max 1 µM, 7x7, partner max 10 µM) | 0.714 | 0.659 | 0.356 | 0.808 | 0.59 | 0.357 | 0.702 | 0.997 | 0.331 | 0.502 | 0.879 | 1 | 0.795 | 0.631 | 0.823 | 0.584 | 0.557 | 0.514 | 0.305 | 0.508 |
| CC1(C)CCC(CN2CCN(c3ccc(C(=O)NS(=O)(=O)c4ccc(NCC5CCOCC5)c([N+](=O)[O-])c4)c(Oc4cnc5[nH]ccc5c4)c3)CC2)=C(c2ccc(Cl)cc2)C1 [Venetoclax] + Cc1cc2ncnn2cc1Nc1ncc2c(n1)n(C1CCOCC1)c(=O)n2C [AZD7648] (first compound max 1 µM, 7x7, partner max 10 µM) | 0.698 | 0.171 | 0.259 | 0.145 | 0.283 | 0.196 | 0.528 | 0.107 | 0.22 | 0.756 | 0.203 | 0.23 | 0.174 | 0.133 | 0.628 | 0.399 | 0.398 | 0.444 | 0.654 | 0.221 |
| CC1(C)CCC(CN2CCN(c3ccc(C(=O)NS(=O)(=O)c4ccc(NCC5CCOCC5)c([N+](=O)[O-])c4)c(Oc4cnc5[nH]ccc5c4)c3)CC2)=C(c2ccc(Cl)cc2)C1 [Venetoclax] + C=CCn1c(=O)c2cnc(Nc3ccc(N4CCN(C)CC4)cc3)nc2n1-c1cccc(C(C)(C)O)n1 [AZD1775] (first compound max 1 µM, partner max 1 µM) | 1 | 0.744 | 0.377 | 0.832 | 0.431 | 0.364 | 0.97 | 0.55 | 0.0382 | 0.932 | 0.377 | 1 | 0.328 | 0.401 | 0.927 | 0.805 | 0.814 | 0.785 | 0.81 | 0.388 |
| CC1(C)CCC(CN2CCN(c3ccc(C(=O)NS(=O)(=O)c4ccc(NCC5CCOCC5)c([N+](=O)[O-])c4)c(Oc4cnc5[nH]ccc5c4)c3)CC2)=C(c2ccc(Cl)cc2)C1 [Venetoclax] + CN(C)CCCOc1ccc(-c2ccc3ncc4c(c3c2)n(C2CCOCC2)c(=O)n4C)cn1 [AZD0156] (first compound max 1 µM, 7x7, partner max 1 µM) | 0.278 | 0.256 | 0.17 | 0.195 | 0.289 | 0.164 | 0.34 | 0.118 | 0.146 | 0.736 | 0.0954 | 0.0995 | 0.173 | 0.149 | 0.491 | 0.395 | 0.289 | 0.562 | 0.685 | 0.167 |
| COc1nnc2ccc(N3CCC(c4ccc(OCCN5CCN(C)C(=O)[C@H]5C)cc4)CC3)nn12 [AZD5153] + CCN(CCO)CCCOc1ccc2c(Nc3cc(CC(=O)Nc4cccc(F)c4)[nH]n3)ncnc2c1 [AZD2811] (first compound max 1 µM, 7x7, partner max 1 µM) | 0.74 | 0.711 | 0.308 | 0.677 | 0.568 | 0.458 | 0.729 | 0.739 | 0.298 | 0.589 | 0.529 | 0.944 | 0.646 | 0.351 | 0.783 | 0.459 | 0.626 | 0.444 | 0.398 | 0.452 |
| C[C@@H]1COCCN1c1cc(C2([S@](C)(=N)=O)CC2)nc(-c2ccnc3[nH]ccc23)n1 [AZD6738] + O=C(c1cc(Cc2n[nH]c(=O)c3ccccc23)ccc1F)N1CCN(C(=O)C2CC2)CC1 [Olaparib] (first compound max 10 µM, 7x7, partner max 10 µM) | 0.942 | 0.756 | 0.386 | 0.808 | 0.392 | 0.309 | 0.836 | 0.383 | 0.351 | 0.813 | 0.468 | 0.975 | 0.793 | 0.534 | 0.832 | 0.722 | 0.744 | 0.679 | 0.852 | 0.563 |
| COc1nnc2ccc(N3CCC(c4ccc(OCCN5CCN(C)C(=O)[C@H]5C)cc4)CC3)nn12 [AZD5153] + C=CCn1c(=O)c2cnc(Nc3ccc(N4CCN(C)CC4)cc3)nc2n1-c1cccc(C(C)(C)O)n1 [AZD1775] (first compound max 1 µM, partner max 1 µM) | 0.996 | 0.956 | 0.275 | 0.804 | 0.617 | 0.602 | 0.897 | 0.889 | 0.376 | 0.796 | 0.524 | 1 | 0.63 | 0.627 | 0.844 | 0.44 | 0.832 | 0.439 | 0.524 | 0.417 |
